{
  "source": "ChEMBL document CHEMBL5331083",
  "about": "“Targeting ferroptosis: Paving new roads for drug design and discovery” (Eur J Med Chem, 2023)",
  "type_in_all_cases": "functional, cell-based",
  "key": {"MCF7": {"system": "MCF7", "test": "Cytotoxicity against human MCF7 cells incubated for 48 hrs by MTT assay", "details": "MCF7, 48 h"}, "HT-22 [1]": {"system": "HT-22", "test": "Inhibition of erastin-induced ferroptosis in mouse HT-22 cells incubated for 24 hrs by MTT assay", "details": "HT-22, 24 h"}, "HT-22 [2]": {"system": "HT-22", "test": "Inhibition of RSL3-induced ferroptosis in mouse HT-22 cells incubated for 24 hrs by MTT assay", "details": "HT-22, 24 h"}, "[3]": {"test": "Inhibition of erastin-induced cell death in human HT-1080 cells"}, "[4]": {"test": "Inhibition of ferroptosis in tamoxifen induced Gpx4-/- mouse MEF cells"}},
  "data": [
    {"smiles": "COc1cc(O)c2c(=O)cc(-c3ccc(O)c(-c4c(O)cc5oc(-c6ccc(O)cc6)cc(=O)c5c4OC)c3)oc2c1", "values": [
      {"measurement": "IC50", "setting": "MCF7", "result": 11.9, "unit": "µM"}
    ]},
    {"smiles": "CCO[C@@H]1C[C@@H]2C[C@@H]([C@@]3(C)[C@H](C)C[C@H](OC(C)=O)[C@]4(COC(C)=O)[C@@H]3CC[C@H](OC(=O)C(C)CC)[C@]43CO3)O[C@@H]2O1", "note": "(stereo partly specified)", "values": [
      {"measurement": "EC50", "setting": "HT-22 [1]", "result": 4.1, "unit": "µM"},
      {"measurement": "EC50", "setting": "HT-22 [2]", "result": 3.6, "unit": "µM"}
    ]},
    {"smiles": "CCOC(=O)c1ccc(NC2CCCCC2)c(NCc2ccccc2)c1", "values": [
      {"measurement": "IC50", "setting": "[3]", "result": 0.006, "unit": "µM"}
    ]},
    {"smiles": "CCOC(=O)c1ccc(NC2CCCCC2)c(N)c1", "values": [
      {"measurement": "IC50", "setting": "[3]", "result": 0.095, "unit": "µM"}
    ]},
    {"smiles": "Clc1cccc(CNC2=Nc3ccccc3NC23CCNCC3)c1", "values": [
      {"measurement": "IC50", "setting": "[4]", "result": 0.022, "unit": "µM"}
    ]}
  ]
}
